According to patent publication US12686668B2, “Leukotriene synthesis inhibitors” (Naegis Pharmaceuticals Inc., priority 2019, dated 2026):
pIC50: −log10 of the molar value. Like-named read-outs stand apart in the source and are kept apart here.

What was measured:
[1] = tested on: LTB4 production in porcine or human whole blood; assay: Whole blood HPLC assay, inhibition of LTB4 production; assay type: cell-based; details: 5 point curve, porcine or human whole blood (not specified)
How it was run: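 Porcine or human whole blood was pre-incubated 30 min with compound, then stimulated 20 min at room temperature with 20 μM A23187 (porcine blood also received 20 μM arachidonic acid). Plasma LTB4 was extracted on C18 and quantified by HPLC against reference standards. IC50 from a 5-point curve, with inhibition relative to controls.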

AA-induced ear edema = assay: Arachidonic acid (AA) induced mouse ear edema model; assay type: in vivo, CD-1 mice; details: 4 hrs and 1 hr before AA 2 mg/ear, mice; for % Inhibition AA-Induced ear edema (0.3 mg/ear): topical 0.3 mg/ear; for % Inhibition AA-Induced ear edema (1 mg/ear): topical 1 mg/ear
Description: One group serves as a control and receives 20 μL of vehicle applied to the pinna of each ear (10 μL to the inside and 10 μL to the outside of the pinna). One or more additional groups serve as test groups. The test compound was applied to the pinna of one ear of the mouse in a 20 μL volume (10 μL to the inside and 10 μL to the outside of the pinna). Test compound or control vehicle (acetone/1% DMSO) was applied topically to the right ear 4 and 1 hour before the application of 2 mg/ear AA as a stimulus to both the inner and outer surfaces of CD-1 mice. The left ears received vehicle (acetone/1% DMSO) alone. The animal was lightly anesthetized again using isofluorane to enable application of the stimulus. For the control group, arachidonic acid (2 mg/ear) was applied as the stimulus to the pinna of one ear only, in a total volume of 20 μL of acetone (10 μL applied to the inside and 10 μL to the outside of the pinna). The other ear received 20 μL of acetone. This served to determine the increase in ear weight due to arachidonic acid in the absence of test compounds. For the test groups, arachidonic acid (2 mg/ear) was applied as the stimulus to the pinna of each ear, in a total volume of 20 μL of acetone (10 μL applied to the inside and 10 μL to the outside of the pinna). The animal was allowed to recover after application of the stimulus in each case. After 60 minutes the animal was euthanized and a standard biopsy sample was taken from each ear using a 6 mm skin biopsy punch (Acuderm). Ear edema was determined by the increase in weight of the tissue due to accumulation of fluid as a result of plasma extravasation. The ears were weighed separately using a balance suitable to record 0.1 mg. For the control group, the difference in ear weights was determined by subtracting the weight of the unstimulated ear from the stimulated ear, and this was a measure of the increase in ear weight due to edema. The percentage increase in ear weight was determined by dividing the increase in stimulated ear weight by the unstimulated ear weight and multiplying by 100. For the test groups, the difference in ear weights was determined by subtracting the weight of the untreated ear from the weight of the ear treated with test compound. The percent inhibition of the increase in ear weight for ears treated with the test compound was estimated by first subtracting the mean ear weight of the untreated controls from each tissue to determine the increase in tissue weight due to application of the arachidonic acid. The percent inhibition=1−(test drug stimulated ear (mg)/control stimulated ear (mg))×100. In Table 5, the data from inhibition of AA-induced ear edema in mice by topical application of compounds is provided. Compounds (0.3 or 1 mg/ear) were applied topically to the ear 4 hrs and 1 hr prior to application of arachidonic acid (AA; 2 mg/ear).

[2] = tested on: LTC4 production in MC/9 cells; assay: MC/9 HPLC assay, inhibition of LTC4 production; assay type: cell-based; details: Mus musculus; for inhibition at 3 µM: MC9, 3 μM, A23187 stimulated
How it was run: (§1)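 MC/9 cells (3×10^6 in HBSS) pre-incubated 30 min with compound, then stimulated 20 min at room temperature with 1 μM A23187. After methanol quench and C18 solid-phase extraction, LTB4 and LTC4 quantified by HPLC against reference standards; inhibition relative to control samples.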

[3] = tested on: LTB4 production in MC/9 cells; assay: MC/9 HPLC assay, inhibition of LTB4 production; assay type: cell-based; details: Mus musculus
How it was run: as §1

[4] = MC9, Table 2 column 3, no concentration in head (1 μM according to b732), read-out: % Inhibition LTC4
[5] = MC9, Table 2 column 4, no concentration in head (1 μM according to b732), read-out: % Inhibition LTB4

Row | Compound | pIC50 [1] | % Inhibition AA-Induced ear edema (0.3 mg/ear) (AA-induced ear edema) | % Inhibition AA-Induced ear edema (1 mg/ear) (AA-induced ear edema) | inhibition at 1 µM ([2]; MC9, 1 μM, read-out: % inhibition LTC4 (1 μM)) | inhibition at 3 µM [2] | inhibition at 1 µM [2, 4] | inhibition at 1 µM ([3]; MC9, 1 μM, read-out: % inhibition LTB4 (1 μM)) | inhibition at 1 µM [3, 5]
1 | CCC(O)(CCc1ccc(Oc2nc3c(SC)cccc3s2)c(OC)c1)C(F)(F)F (centres unmarked) [Compound 104, 1-{3-methoxy-4-[(4-methylsulfanyl-1,3-benzothiazol-2-yl)oxy]phenyl}-3-(trifluoromethyl)pentan-3-ol] | 6.00 to 7.00 | 30-50% | 50-70% | 90% | > 90% | > 90% | 90% | > 90%
2 | CC(O)(CCc1ccc(OCc2ccc3ccccc3n2)cc1)C(F)(F)F (centres unmarked) [Compound 183, 1,1,1-trifluoro-2-methyl-4-[4-(quinolin-2-ylmethoxy)phenyl]butan-2-ol] | 6.00 to 7.00 | 30-50% | >90% |  | > 90% | > 90% |  | > 90%
